Results taken from US20240209011A1, “HETEROAROMATIC PHOSPHONIUM SALTS FOR TREATING CANCER” (FLORATEK PHARMA S.A., priority 2021, published 2024).

Key:
Type in all cases: cell-based
[1] = tested on: breast cancer cell; assay: Activity against breast cancer cells; details: breast cancer cell growth; Tables 5A and B
Procedure: (§1) Antitumor activity of the compounds and doxorubicin as a positive control was assessed by using the CellTiter-Blue Cell Viability Assay (Promega, #G8082) or CellTiter-Glow® Luminescent Cell Viability assay (Promega #G7572) according to the manufacturer's instructions. The compounds were tested at 5 or 6 concentrations in half-log increments (highest concentration 30 μM or 100 μM) in duplicate or triplicate well conditions.
(§2) Tumor cells were grown at 37° C. in a humidified atmosphere with 5% CO2 in RPMI 1640 or DMEM medium, supplemented with 10% (v/v) fetal calf serum and 50 μg/ml gentamicin for up to 20 passages, and were passaged once or twice weekly. Cells were harvested using TrypLE or PBS buffer containing 1 mM EDTA, and the percentage of viable cells is determined using a CASY Model TI cell counter (OMNI Life Science). Cells were harvested from exponential phase cultures, counted and plated in 96 well flat-bottom microtiter plates at a cell density depending on the cell line's growth rate (4,000-20,000 cells/well depending on the cell line's growth rate, up to 60,000 for hematological cancer cell lines) in RPMI 1640 or DMEM medium supplemented with 10% (v/v) fetal calf serum and 50 μg/ml gentamicin (140 μl/well). Cultures were incubated at 37° C. and 5% CO2 in a humidified atmosphere. After 24 h, 10 μl of test compounds or control medium were added, and left on the cells for another 72 h. Compounds were serially diluted in DMSO, transferred in cell culture medium, and added to the assay plates. The DMSO concentration was kept constant at <0.3% v/v across the assay plate. Viability of cells was quantified by the CellTiter-Blue® cell viability assay (Promega G8081) or CellTiter-Glow® Luminescent Cell Viability assay (Promega #G7572). Fluorescence (FU) was measured by using the EnSpire® multimode plate reader (Perkin Elmer) (excitation X=570 nm, emission λ=600 nm). Luminescence was measured with a microplate luminometer (Promega or PerkinElmer).
(§3) Sigmoidal concentration-response curves were fitted to the data points (test-versus-control, T/C values) obtained for each tumor model using 4 parameter non-linear curve fit (Charles River DRS Datawarehouse Software) or with GraphPad prism 5.02 software. IC50 values are reported as absolute IC50 values, being the concentration of test compound at the intersection of the concentration-response curves with T/C=50% Cell lines tested are presented in Table 1.

[2] = tested on: prostate cancer cell; assay: Activity against prostate cancer cells; details: prostate cancer cell growth; text summary of Table 21
Procedure: as §1, §2, §3

[3] = tested on: LU-01-0604; assay: PDX-derived cell culture cytotoxicity (CellTiter-Glo); details: 120 h; lung PDX LU-01-0604; absolute IC50; 5 days
Procedure: (§4) PDX-derived cell cultures were obtained from tumors explanted from mice and isolated by mechanical and enzymatic dissociation. […] Cells were harvested and seeded in 96-wells plates at a density of 1.25 to 5×10^3 cells/well for cytotoxicity assays. Cells were incubated 48 h at 37° C. prior to addition of test molecules and vehicle (DMSO, 0.1%) at desired final concentrations. Cell viability was assessed before drugs' addition (To) and 5 days after test molecules addition by measuring ATP cell content using CellTiter-Glo® Luminescent Cell Viability Assay (Promega) according to the manufacturer's instructions. Luciferase activity was measured on a luminometer (PerkinElmer® EnVision™). Each concentration of compounds was tested in triplicate.
(§5) Viability was calculated as a percentage of ATP value compared to vehicle treated controls.
(§6) For PDX primary cell cultures, the tumour tissue was washed with PBS containing antibiotic-antimycotic and non-tumour tissue and necrotic tumour tissues were separated. The tumour tissue was transferred to a new dish and cut into 1-2 mm^3 fragments, resuspended in RPMI-1640 medium and centrifuged at 1,200 rpm for 6 min at room temperature. The pelleted material was resuspended with 15 mL of Tumour Cell Digestion Solution and incubated at 37° C. for 1 hour with agitation. Following further addition of media, centrifugation and passage through a […] cell strainer, the homogenous cell mixture was layered onto 15 mL of Ficoll-Paque PLUS in a 50 mL conical tube and centrifuged for 15 min at 1,600 rpm. The interface cells were collected, washed with media, separated by centrifugation at 1,200 rpm. The cell pellet was resuspended in serum free media supplemented with growth factors. 10,000 cells/wells were plated in a 96 well plate and incubated at 37° C., 5% CO2, 95% air and 100% relative humidity overnight. The cytotoxicity assay was conducted as above. IC50 values represent absolute IC50.

[4] = tested on: CH-17-0098; assay: as above; details: 120 h; bile duct PDX CH-17-0098; absolute IC50; 5 days
Procedure: as §4, §5, §6

[5] = tested on: colon cancer cell; assay: Activity against colon cancer cells; details: colon cancer cell growth; summary of Tables 7A-7D
Procedure: as §1, §2, §3

[6] = tested on: brain cancer cell; assay: Activity against brain cancer cells; details: brain cancer cell growth; Tables 4A-4D
Procedure: as §1, §2, §3

[7] = tested on: leukaemia cell; assay: Activity against leukaemia cells; details: leukaemia cell growth; Tables 13A and 13B
Procedure: as §1, §2, §3

[8] = tested on: MDA-MB-468; assay: Cell viability assay (CellTiter-Blue/CellTiter-Glow); details: Homo sapiens; breast carcinoma cell line MDA-MB-468; absolute IC50; 72 h
Procedure: as §1, §2, §3

[9] = tested on: LNCaP; assay: as above; details: Homo sapiens; prostate carcinoma cell line LNCaP; absolute IC50; 72 h
Procedure: as §1, §2, §3

[10] = tested on: HL-60; assay: as above; details: Homo sapiens; leukaemia cell line HL-60; absolute IC50; 72 h
Procedure: as §1, §2, §3

[11] = tested on: LoVo; assay: as above; details: Homo sapiens; colon carcinoma cell line LoVo; absolute IC50; 72 h
Procedure: as §1, §2, §3

[12] = tested on: HCT-116; assay: as above; details: Homo sapiens; colon carcinoma cell line HCT-116; absolute IC50; 72 h
Procedure: as §1, §2, §3

[13] = tested on: MCF-7; assay: as above; details: Homo sapiens, MCF7; breast carcinoma cell line MCF-7; absolute IC50; 72 h
Procedure: as §1, §2, §3

[14] = tested on: 22Rv1; assay: as above; details: Homo sapiens; prostate carcinoma cell line 22Rv1; absolute IC50; 72 h
Procedure: as §1, §2, §3

[15] = tested on: PC-3; assay: as above; details: Homo sapiens; prostate carcinoma cell line PC-3; absolute IC50; 72 h
Procedure: as §1, §2, §3

[16] = tested on: ovarian cancer cell; assay: Activity against ovarian cancer cells; details: ovarian cancer cell growth; Tables 18A-18C
Procedure: as §1, §2, §3

[17] = tested on: pancreatic cancer cell; assay: Activity against pancreatic cancer cells; details: pancreatic cancer cell growth; Table 19A
Procedure: as §1, §2, §3

SMILES	IC50 [1] [µM]	IC50 [2] [µM]	IC50 [3] [µM]	IC50 [4] [µM]	IC50 [5] [µM]	IC50 [6] [µM]	IC50 [7] [µM]	IC50 [8] [µM]	IC50 [9] [µM]	IC50 [10] [µM]	IC50 [11] [µM]	IC50 [12] [µM]	IC50 [13] [µM]	IC50 [14] [µM]	IC50 [15] [µM]	IC50 [16] [µM]	IC50 [17] [µM]
O=c1cc(-c2ccc(CCCC[P+](c3ccccc3)(c3ccccc3)c3ccccc3)cc2)oc2c3c(ccc12)OCO3.[Br-] [SND123, 4-[4-(6-oxo-[1,3]dioxolo[4,5-h]chromen-8-yl)phenyl]butyl-triphenylphosphonium bromide]	< 20	< 10	0.35	0.72	< 20	< 20	< 20	0.36	1.37	1.08	1.7	2.25	6.87	1.49	1.89	< 20	< 20
CCNC(=O)Oc1ccc2c(=O)cc(-c3ccc(CCCC[P+](c4ccccc4)(c4ccccc4)c4ccccc4)cc3)oc2c1O.[Br-] [SND126A, 4-[4-[7-(Ethylcarbamoyloxy)-8-hydroxy-4-oxo-chromen-2-yl]phenyl]butyltriphenylphosphonium bromide]	< 20	< 10	8.2	8.5	< 20	< 20	< 20	0.56	1.95	0.58	2.94	3.56	12.9	2.39	2.91	< 20	< 20
O=c1cc(-c2ccc(CCCC[P+](c3ccccc3)(c3ccccc3)c3ccccc3)cc2)oc2c(O)c(O)ccc12 [SND118, 4-[4-(7,8-dihydroxy-4-oxo-chromen-2-yl)phenyl]butyltriphenyl-phosphonium bromide]	< 20	< 10			< 20	< 20	< 20	0.32	1.87	0.29	7.9	1.53	0.86	5.1	5.3	< 20	< 20
CC(C)NC(=O)Oc1ccc2c(=O)cc(-c3ccc(CCCC[P+](c4ccccc4)(c4ccccc4)c4ccccc4)cc3)oc2c1O [SND127, 4-[4-[7-(Isopropylcarbamoyloxy)-8-hydroxy-4-oxo-chromen-2-yl]phenyl]butyltriphenylphosphonium bromide]	< 20	< 10			< 20	< 20	< 20	0.6	2	1.54	8.4	6.2	6.7	3.3	5.5	< 20	< 20
COc1c(O)ccc2c(=O)cc(-c3ccc(CCCC[P+](c4ccccc4)(c4ccccc4)c4ccccc4)cc3)oc12.[Br-] [SND140, (4-(4-(7-hydroxy-8-methoxy-4-oxo-4H-chromen-2-yl)phenyl)butyl)triphenylphosphonium bromide]	< 20	< 10	7.7	4.98	< 20	< 20	< 20	2.8	6.23	0.9	16.3	10.6	4.3	9	8.31	< 20	< 20
CCNC(=O)Oc1ccc2c(=O)cc(-c3ccc(CCCC[P+](c4ccccc4)(c4ccccc4)c4ccccc4)cc3)oc2c1OC(=O)NCC.[Br-] [SND124, 4-[4-[7,8-Bis(ethylcarbamoyloxy)-4-oxo-chromen-2-yl]phenyl]-butyltriphenylphosphonium bromide]	< 20	< 10	7.8	6.1	< 20	< 20	< 20	0.5	4	0.29	21.4	4.2	2	3.4	6.3	< 20	< 20
